From US10508120B2, “TYK2 inhibitors and uses thereof” (Nimbus Lakshmi, Inc., priority 2017, dated 2019)
Like-named read-outs stand apart in the source and are kept apart here.

Legend:
JAK2 kinase domain (JH1) = JAK2 kinase domain (JH1) (Homo sapiens (Human), UniProt O60674); test: JAK2 Radioactive Kinase Assay; format: biochemical; settings: for inhibition at 10 µM: read-out: JAK2 JH1% Inhibition @ 10 μM
Procedure, shortened: (§1)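 Read-out is percent inhibition from a radioactive kinase reaction, measured with compound at 10 μM.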

Tyk2 kinase domain (DH1) = Tyk2 kinase domain (DH1) (Homo sapiens (Human), UniProt P29597); test: Tyk2 Radioactive Kinase Assay; format: biochemical; settings: for inhibition at 10 µM: read-out: Tyk2 JH1% Inhibition @ 10 μM
Procedure, shortened: as §1

[1] = target: human TYK2 (JH2domain-pseudokinase) (Homo sapiens (Human), UniProt P29597); test: TYK2 JH2 Domain Binding Assay (KINOMEscan)
Procedure, shortened: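 Competition binding of a DNA-tagged fusion of human TYK2 JH2 pseudokinase (G556–D888) with NFkB DNA-binding domain, from HEK293 extracts (<0.1 nM final), against immobilised ligand beads; 1 h shaking at room temperature, 0.9% DMSO. Bound kinase quantified by qPCR.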

Tyk2 kinase domain (DH1), sequence (P29597 897-1176): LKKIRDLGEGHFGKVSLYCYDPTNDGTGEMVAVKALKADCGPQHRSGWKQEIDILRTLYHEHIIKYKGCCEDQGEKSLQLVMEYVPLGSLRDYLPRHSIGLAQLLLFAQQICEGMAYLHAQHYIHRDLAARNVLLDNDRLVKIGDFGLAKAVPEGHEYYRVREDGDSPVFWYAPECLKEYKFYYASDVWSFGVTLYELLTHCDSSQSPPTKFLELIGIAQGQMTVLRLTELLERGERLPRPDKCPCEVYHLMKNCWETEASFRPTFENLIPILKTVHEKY
JAK2 kinase domain (JH1), sequence (O60674 849-1124): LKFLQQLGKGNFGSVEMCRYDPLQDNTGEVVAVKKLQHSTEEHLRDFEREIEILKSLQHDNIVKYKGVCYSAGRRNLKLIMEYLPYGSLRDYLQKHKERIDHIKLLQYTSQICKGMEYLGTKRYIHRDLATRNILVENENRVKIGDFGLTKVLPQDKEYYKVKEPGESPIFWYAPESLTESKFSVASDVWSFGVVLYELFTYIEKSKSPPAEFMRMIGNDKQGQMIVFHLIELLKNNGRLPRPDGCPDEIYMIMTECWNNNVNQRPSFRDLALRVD
human TYK2 (JH2domain-pseudokinase), sequence (P29597 556-888): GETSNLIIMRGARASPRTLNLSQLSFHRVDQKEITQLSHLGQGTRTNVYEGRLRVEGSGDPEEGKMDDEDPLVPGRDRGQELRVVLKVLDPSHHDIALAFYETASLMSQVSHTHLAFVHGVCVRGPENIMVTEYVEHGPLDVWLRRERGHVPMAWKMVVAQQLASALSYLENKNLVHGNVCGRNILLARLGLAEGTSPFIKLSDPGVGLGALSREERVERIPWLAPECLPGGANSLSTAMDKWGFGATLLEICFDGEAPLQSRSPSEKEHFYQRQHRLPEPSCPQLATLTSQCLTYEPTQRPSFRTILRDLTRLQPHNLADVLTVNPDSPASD

Row | SMILES | inhibition at 10 µM (JAK2 kinase domain (JH1); compound at 10 μM, ATP 10 μM) | inhibition at 10 µM (Tyk2 kinase domain (DH1); compound at 10 μM, ATP 10 μM) | Kd [1] | also measured
1 | Cc1cc(Nc2cc(N)n3ncc(C(N)=O)c3n2)cc(N2CCCC2)n1 [I-28] | < 50% | < 50% | > 10 nM | –
2 | CNc1cc(Nc2cnn(C)c2)nc2c(C(N)=O)cnn12 [I-11] | < 50% | < 50% | 1 to 10 nM | –
3 | CNc1cc(Nc2cccc(N3CC4(CCO4)C3)n2)nc2c(C(=O)NC3CC3)cnn12 [I-618] | < 50% | < 50% | < 0.2 nM | –
4 | CNc1cc(Nc2cccn(C3CCCCC3)c2=O)nc2c(C(=O)N[C@H]3COC[C@H]3O)cnn12 (stereo in doubt) [I-1112, 5-((1-cyclohexyl-2-oxo-1,2-dihydropyridin-3-yl)amino)-N-(4-hydroxytetrahydrofuran-3-yl)-7-(methylamino)pyrazolo[1,5-a]pyrimidine-3-carboxamide] | – | – | 0.2 to 1 nM | inhibition at 10 µM (JAK2 kinase domain (JH1); 10 μM compound, 10 μM ATP): < 50%; inhibition at 10 µM (Tyk2 kinase domain (DH1); 10 μM compound, 10 μM ATP): < 50%
5 | NC(=O)c1cnn2c(N)cc(Nc3cccn([C@H]4CC[C@H](O)CC4)c3=O)nc12 [I-50] | < 50% | < 50% | 0.2 to 1 nM | –
6 | Cc1c(Nc2cccnc2OC(C)C)nc2c(C(=O)N[C@@H]3C[C@@H]3F)cnn2c1N (stereo in doubt) [I-206, 7-amino-N-((1R,2S)-2-fluorocyclopropyl)-5-((2-isopropoxypyridin-3-yl)amino)-6-methylpyrazolo[1,5-a]pyrimidine-3-carboxamide] | < 50% | < 50% | 1 to 10 nM | –
7 | CNc1cc(Nc2cccn(C3CCN(CCC#N)CC3)c2=O)nc2c(C(=O)N[C@H]3C[C@H]3F)cnn12 [I-628, -((1-(1-(2-cyanoethyl)piperidin-4-yl)-2-oxo-1,2-dihydropyridin-3-yl)amino)-N-((1R,2S)-2-fluorocyclopropyl)-7-(methylamino)pyrazolo[1,5-a]pyrimidine-3-carboxamide] | < 50% | < 50% | < 0.2 nM | –
8 | CNc1cc(Nc2cccnc2OC)nc2c(C(=O)N[C@@H]3CC[C@@H](O)C3)cnn12 [I-488] | < 50% | < 50% | < 0.2 nM | –
9 | CNc1cc(-c2cn(C(C)C)c3ncc(C)cc23)nc2c(C(=O)NC3CCC3)cnn12 [I-256] | < 50% | < 50% | 0.2 to 1 nM | –
10 | CNc1cc(-c2cn(C(C)C)c3ncccc23)nc2c(C(=O)N[C@H]3COC[C@H]3O)cnn12 [I-841, N-((3S,4S)-4-hydroxytetrahydrofuran-3-yl)-5-(1-isopropyl-1H-pyrrolo[2,3-b]pyridin-3-yl)-7-(methylamino)pyrazolo[1,5-a]pyrimidine-3-carboxamide] | – | – | 1 to 10 nM | inhibition at 10 µM (JAK2 kinase domain (JH1); 10 μM compound, 10 μM ATP): < 50%; inhibition at 10 µM (Tyk2 kinase domain (DH1); 10 μM compound, 10 μM ATP): < 50%
11 | CNc1cc(Nc2cccn(C3CCN(CCF)CC3)c2=O)nc2c(C(=O)NC3CC3)cnn12 [I-569, N-cyclopropyl-5-((1-(1-(2-fluoroethyl)piperidin-4-yl)-2-oxo-1,2-dihydropyridin-3-yl)amino)-7-(methylamino)pyrazolo[1,5-a]pyrimidine-3-carboxamide] | < 50% | < 50% | < 0.2 nM | –
12 | CNc1cc(Nc2cc(C)cnc2OC2CC2)nc2c(C(=O)NC3CCC3)cnn12 [I-278] | < 50% | < 50% | 0.2 to 1 nM | –
13 | CNc1cc(-c2cn(C(C)C)c3ncc(Cl)cc23)nc2c(C(=O)NC3CC3)cnn12 [I-253, 5-(5-chloro-1-isopropyl-1H-pyrrolo[2,3-b]pyridin-3-yl)-N-cyclopropyl-7-(methylamino)pyrazolo[1,5-a]pyrimidine-3-carboxamide] | < 50% | < 50% | 0.2 to 1 nM | –
14 | CNc1cc(Nc2cccnc2OC2CC2)nc2c(C(=O)NCCC(C)(C)O)cnn12 [I-422, 5-((2-cyclopropoxypyridin-3-yl)amino)-N-(3-hydroxy-3-methylbutyl)-7-(methylamino)pyrazolo[1,5-a]pyrimidine-3-carboxamide] | < 50% | < 50% | 1 to 10 nM | –
15 | CNc1cc(Nc2cc(Cl)cn(-c3cnn(C4CC4)c3C)c2=O)nc2c(C(=O)NC3CC3)cnn12 [I-325] | < 50% | < 50% | 0.2 to 1 nM | –
16 | CNc1cc(Nc2cccn(-c3ccc(C(=O)N4CCC4)cn3)c2=O)nc2c(C(=O)N[C@H]3C[C@H]3F)cnn12 [I-142] | < 50% | < 50% | < 0.2 nM | –

Row | SMILES | inhibition at 10 µM (JAK2 kinase domain (JH1); compound at 10 μM, ATP 10 μM) | inhibition at 10 µM (Tyk2 kinase domain (DH1); compound at 10 μM, ATP 10 μM) | Kd [1] | also measured
17 | CNc1cc(Nc2cccnc2O[C@H]2CC[C@H](O)CC2)nc2c(C(=O)NC3CCC3)cnn12 [I-232] | < 50% | < 50% | < 0.2 nM | –
18 | CNc1cc(Nc2cccn(-c3ccccc3F)c2=O)nc2c(C(=O)N[C@@H]3CC[C@H]3O)cnn12 [I-1039] | – | – | < 0.2 nM | inhibition at 10 µM (JAK2 kinase domain (JH1); 10 μM compound, 10 μM ATP): < 50%; inhibition at 10 µM (Tyk2 kinase domain (DH1); 10 μM compound, 10 μM ATP): < 50%
19 | CNc1cc(Nc2cccn([C@@H]3CCCOC3)c2=O)nc2c(C(=O)NCC(C)(C)CO)cnn12 [I-598] | < 50% | 50 to 70% | < 0.2 nM | –
20 | CNc1cc(Nc2cccc(N3CC(O)C3)n2)nc2c(C(=O)NC3CC3)cnn12 [I-620] | < 50% | < 50% | < 0.2 nM | –
21 | CNc1cc(Nc2cccnc2OC)nc2c(C(=O)N[C@@H]3CCC[C@@H](O)C3)cnn12 (stereo in doubt) [I-459, N-(3-hydroxycyclohexyl)-5-((2-methoxypyridin-3-yl)amino)-7-(methylamino)pyrazolo[1,5-a]pyrimidine-3-carboxamide] | < 50% | < 50% | < 0.2 nM | –
22 | CNc1cc(-c2cn(C(C)C)c3ncccc23)nc2c(C(=O)N[C@@H]3CC[C@@H]3O)cnn12 [I-638] | – | – | 0.2 to 1 nM | JAK2 JH1% Inhibition @ 10 μM (JAK2 kinase domain (JH1); compound at 10 μM, ATP 10 μM): A (percent inhibition at 10 μM lower than 50); Tyk2 JH1% Inhibition @ 10 μM (Tyk2 kinase domain (DH1); compound at 10 μM, ATP 10 μM): A (percent inhibition at 10 μM lower than 50)
23 | CNc1cc(Nc2cccn(C3CCCCC3)c2=O)nc2c(C(N)=O)cnn12 [I-12] | < 50% | < 50% | 1 to 10 nM | –
24 | Cc1cc(C)cc(Nc2cc(N)n3ncc(C(N)=O)c3n2)c1 [I-21] | 70 to 90% | < 50% | 0.2 to 1 nM | –
25 | CNc1cc(Nc2cccn([C@@H]3C[C@H]3F)c2=O)nc2c(C(=O)NCC3(CO)CC3)cnn12 [I-1122, 5-((1-((1R,2R)-2-fluorocyclopropyl)-2-oxo-1,2-dihydropyridin-3-yl)amino)-N-((1-(hydroxymethyl)cyclopropyl)methyl)-7-(methylamino)pyrazolo[1,5-a]pyrimidine-3-carboxamide] | – | – | 0.2 to 1 nM | inhibition at 10 µM (JAK2 kinase domain (JH1); 10 μM compound, 10 μM ATP): < 50%; inhibition at 10 µM (Tyk2 kinase domain (DH1); 10 μM compound, 10 μM ATP): < 50%
26 | CNc1cc(Nc2cccn([C@H]3CC[C@H]3O)c2=O)nc2c(C(=O)NC3CC3)cnn12 [I-956] | – | – | < 0.2 nM | JAK2 JH1% Inhibition @ 10 μM (JAK2 kinase domain (JH1); 10 μM compound, 10 μM ATP): A (percent inhibition at 10 μM lower than 50); Tyk2 JH1% Inhibition @ 10 μM (Tyk2 kinase domain (DH1); 10 μM compound, 10 μM ATP): A (percent inhibition at 10 μM lower than 50)
27 | CNc1cc(Nc2cc(Cl)cn(C3CCOCC3)c2=O)nc2c(C(=O)N[C@H]3CC[C@H]3O)cnn12 [I-1068] | – | – | < 0.2 nM | inhibition at 10 µM (JAK2 kinase domain (JH1); 10 μM compound, 10 μM ATP): < 50%; inhibition at 10 µM (Tyk2 kinase domain (DH1); 10 μM compound, 10 μM ATP): < 50%
28 | CNc1cc(Nc2cc(F)cnc2OCCOC)nc2c(C(=O)NC3CC3)cnn12 [I-286] | < 50% | < 50% | 0.2 to 1 nM | –
29 | CNc1cc(Nc2cccn(-c3cnn(C[C@@H]4CCOC4)c3)c2=O)nc2c(C(=O)NC3CC3)cnn12 [I-600] | < 50% | < 50% | < 0.2 nM | –
30 | CNc1cc(Nc2cccn(C3CCCN(CCC#N)C3)c2=O)nc2c(C(=O)NC3CC3)cnn12 (stereo not drawn) [I-1009, 5-((1-(1-(2-cyanoethyl)piperidin-3-yl)-2-oxo-1,2-dihydropyridin-3-yl)amino)-N-cyclopropyl-7-(methylamino)pyrazolo[1,5-a]pyrimidine-3-carboxamide] | – | – | 0.2 to 1 nM | inhibition at 10 µM (JAK2 kinase domain (JH1); 10 μM compound, 10 μM ATP): < 50%; inhibition at 10 µM (Tyk2 kinase domain (DH1); 10 μM compound, 10 μM ATP): < 50%
31 | CNc1cc(Nc2cccnc2O[C@H]2C[C@H](OC)C2)nc2c(C(=O)N[C@H]3C[C@H]3F)cnn12 [I-189] | < 50% | < 50% | < 0.2 nM | –
